Patent US9034866B2 (Genentech, Inc., priority 2012, dated 2015)
Several values for one entry are separate records, joined by “and”; a condition that tells them apart may be missing. Equal values may be shown once. Read-outs that look alike come from different tables or passages of the source.

Target: nuclear factor-kappa B (NF-kB)-inducing kinase (NIK) (Homo sapiens (Human), UniProt Q99558)
Experiment: NIK Enzyme Inhibition Assay (Transcreener ADP fluorescence polarization)
Format: biochemical
Settings: read-out: NIK ADP-FP (Ki uM)
Experimental: NIK Enzyme Inhibition Assay: The ability of the nuclear factor-kappa B (NF-kB)-inducing kinase (NIK) to catalyze the hydrolysis of adenosine-5′-triphosphate (ATP) was monitored using the Transcreener ADP (adenosine-5′-diphosphate) assay (BellBrook Labs). Purified NIK (0.2-1 nM) derived from a baculovirus-infected insect cell expression system was incubated with test compounds for 1-3.5 hours in 50 mM 2-[4-(2-hydroxyethyl)piperazin-1-yl]ethanesulfonic acid buffer (pH 7.2) containing 10 mM MgCl2, 2 mM dithiothreitol, 10 uM ATP, 0.01% Triton X-100, 0.1% gamma-globulins from bovine blood, 1% dimethylsulfoxide (DMSO), 12 ug/mL ADP antibody and 4 nM ADP-AlexaFluor® 633 tracer. Reactions were quenched by the addition of 20 mM 2,2′,2″,2′″-(ethane-1,2-diyldinitrilo)tetraacetic acid and 0.01% Brij 35. The tracer bound to the antibody was displaced by the ADP generated during the NIK reaction, which causes a decrease in fluorescence polarization that was measured by laser excitation at 633 nm with a Fluorescence Correlation Spectroscopy Plus reader (Evotec AG).

[1] = purified NIK 0.2-1 nM, 10 uM ATP, Morrison's quadratic equation

Sequence of nuclear factor-kappa B (NF-kB)-inducing kinase (NIK) (Q99558 whole entry): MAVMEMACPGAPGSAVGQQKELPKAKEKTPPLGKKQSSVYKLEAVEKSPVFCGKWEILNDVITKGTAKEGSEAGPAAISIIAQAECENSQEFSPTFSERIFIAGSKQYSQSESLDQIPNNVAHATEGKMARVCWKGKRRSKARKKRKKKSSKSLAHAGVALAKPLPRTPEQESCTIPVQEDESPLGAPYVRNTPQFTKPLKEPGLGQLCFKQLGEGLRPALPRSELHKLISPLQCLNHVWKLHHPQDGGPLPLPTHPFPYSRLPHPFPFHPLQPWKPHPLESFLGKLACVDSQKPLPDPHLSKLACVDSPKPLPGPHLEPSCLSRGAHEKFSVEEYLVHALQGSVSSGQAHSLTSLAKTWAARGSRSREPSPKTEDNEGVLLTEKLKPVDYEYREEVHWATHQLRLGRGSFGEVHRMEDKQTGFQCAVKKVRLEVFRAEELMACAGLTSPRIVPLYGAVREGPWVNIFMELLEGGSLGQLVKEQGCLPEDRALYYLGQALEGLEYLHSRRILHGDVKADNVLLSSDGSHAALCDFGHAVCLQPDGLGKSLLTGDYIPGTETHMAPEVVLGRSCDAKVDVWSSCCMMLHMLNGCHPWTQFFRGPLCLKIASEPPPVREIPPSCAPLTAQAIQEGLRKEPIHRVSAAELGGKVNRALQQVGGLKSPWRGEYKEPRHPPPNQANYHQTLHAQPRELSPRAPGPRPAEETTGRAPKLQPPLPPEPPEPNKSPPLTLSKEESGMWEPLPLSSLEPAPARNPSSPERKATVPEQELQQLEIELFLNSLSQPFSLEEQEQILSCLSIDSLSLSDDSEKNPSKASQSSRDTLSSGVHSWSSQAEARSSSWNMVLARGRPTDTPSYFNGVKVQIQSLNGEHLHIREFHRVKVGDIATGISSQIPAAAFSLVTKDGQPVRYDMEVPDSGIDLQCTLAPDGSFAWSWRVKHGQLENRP

Row | SMILES | Ki [1] | Ki [µM]
1 | Cn1cnc(C(C)(O)C#Cc2cc3c(cc2F)OCCn2cc(C(N)=O)nc2-3)c1 (stereo not drawn) | > 5 µM | –
2 | Cc1nc(-c2c(C(N)=O)nc3n2CCOc2cc(F)c(C#CC(C)(C)O)cc2-3)n(CC(F)(F)F)n1 | 0.502 µM | –
3 | CC(O)(C#Cc1cc2c(cc1F)OCCn1cc(C(N)=O)nc1-2)c1ncc(F)cn1 (stereo not drawn) | 4 µM | –
4 | Cn1cnc(C(C)(O)C#Cc2cc3c(cc2F)OCCc2sc(C(N)=O)nc2-3)c1 (stereo not drawn) | > 5 µM | –
5 | CNC(=O)c1c(C(N)=O)nc2n1C1CC(C1)c1cc(F)c(C#C[C@@](C)(O)c3noc(C)n3)cc1-2 | – | 0.051
6 | CNC(=O)c1c(C(N)=O)nc2n1C1CC(C1)c1cc(F)c(C#CC(C)(O)CO)cc1-2 (stereo not drawn) | 0.01 µM | –
7 | CN1CCCC(O)(C#Cc2cc3c(cc2F)OCCc2sc(C(N)=O)nc2-3)C1=O (stereo not drawn) | 0.002 µM | –
8 | CC(O)C(C)(O)C#Cc1cc2c(cc1F)OCCn1cc(C(N)=O)nc1-2 (stereo not drawn) | 4.9 µM | –
9 | Cc1nc([C@](C)(O)C#Cc2ccc3c(c2)-c2nc(C(N)=O)cn2C2CC3C2)no1 | 0.003 µM | –
10 | CC(O)(C#Cc1cc2c(cc1F)C1CC(C1)n1cc(C(N)=O)nc1-2)CO (stereo not drawn) | 0.014 µM | –
11 | CC(C)(O)C#Cc1cc2c(cc1F)C1CC(C1)n1c-2nc(C(N)=O)c1CN1CCOCC1 | 0.021 µM | –
12 | Cc1nc(C(C)(O)C#Cc2cc3c(cc2F)OCCn2cc(C(N)=O)nc2-3)n[nH]1 (stereo not drawn) | 3.9 µM | –
13 | CC(O)(C#Cc1cc2c(cc1F)OCCn1cc(C(N)=O)nc1-2)c1ccncn1 (stereo not drawn) | > 5 µM | –
14 | CN1CCCC(O)(C#Cc2ccc3c(c2)-c2nc(C(N)=O)sc2CCO3)C1=O (stereo not drawn) | 0.0029 µM | –
15 | Cn1cc(C(O)c2c(C(N)=O)nc3n2CCOc2cc(F)c(C#CC(C)(C)O)cc2-3)cn1 (stereo not drawn) | 0.082 µM | –
16 | Cn1cc([C@@H](O)c2c(C(N)=O)nc3n2CCOc2cc(F)c(C#CC(C)(C)O)cc2-3)cn1 | 0.033 µM | –
17 | Cn1cc([C@H](O)c2c(C(N)=O)nc3n2CCOc2cc(F)c(C#CC(C)(C)O)cc2-3)cn1 | 0.033 µM | –
18 | CC(O)(C#Cc1cc2c(cc1F)OCCn1c-2nc(C(N)=O)c1C1CC1)CO (stereo not drawn) | 0.098 µM | –
19 | CC(O)(C#Cc1ccc2c(c1)-c1nc(C(N)=O)cn1C1CC2C1)c1ccccn1 (stereo not drawn) | 0.0071 µM | –
20 | COCC(C)(O)C#Cc1ccc2c(c1)-c1nc(C(N)=O)cn1C1CC2C1 (stereo not drawn) | 0.0097 µM | –
21 | CC(O)(C#Cc1cc2c(cc1F)OCCn1c-2nc(C(N)=O)c1C1CC1)c1ccccn1 (stereo not drawn) | 0.037 µM | –
22 | CC(O)(C#Cc1cc2c(cc1F)C1CC(C1)n1c-2nc(C(N)=O)c1-c1nc(C2CC2)n[nH]1)CO (stereo not drawn) | 0.0065 µM | –

Row | SMILES | Ki [1] | Ki [µM]
23 | CC(O)(C#Cc1ccc2c(c1)-c1nc(C(N)=O)cn1C1CC2C1)c1nc[nH]n1 (stereo not drawn) | 0.018 µM | –
24 | CNC(=O)c1c(C(N)=O)nc2n1CCOc1ccc(C#CC3(O)CCCCC3)cc1-2 | 0.0057 µM | –
25 | Cn1nccc1Cc1c(C(N)=O)nc2n1C1CC(C1)c1cc(F)c(C#CC(C)(C)O)cc1-2 | 0.0024 µM | –
26 | CN1CCC(O)(C#Cc2ccc3c(c2)-c2nc(C(N)=O)cn2CCO3)C1=O (stereo not drawn) | 0.004 µM | –
27 | Cc1nnc(C(C)(O)C#Cc2ccc3c(c2)-c2nc(C(N)=O)cn2CCO3)o1 (stereo not drawn) | 0.028 µM | –
28 | Cn1cncc1C(O)c1c(C(N)=O)nc2n1C1CC(C1)c1cc(F)c(C#CC(C)(C)O)cc1-2 (stereo not drawn) [listing 1 of 2 here] | 0.011 µM | –
29 | Cn1cncc1C(O)c1c(C(N)=O)nc2n1C1CC(C1)c1cc(F)c(C#CC3(O)CCCC3)cc1-2 (stereo not drawn) | 0.014 µM | –
30 | Cn1cncc1C(O)c1c(C(N)=O)nc2n1C1CC(C1)c1cc(F)c(C#CC(C)(C)O)cc1-2 (stereo not drawn) [listing 2 of 2 here] | 0.031 µM | –
31 | CNC(=O)c1c(C(N)=O)nc2n1CCOc1ccc(C#C[C@](C)(O)c3ccccn3)cc1-2 | > 5 µM | –
32 | CC(O)(C#Cc1cc2c(cc1F)OCCn1cc(C(N)=O)nc1-2)c1c[nH]cn1 (stereo not drawn) | 0.001 µM | –
33 | CC(=O)N1CCN(Cc2c(C(N)=O)nc3n2CCOc2ccc(C#CC(C)(C)O)cc2-3)CC1 | 0.21 µM | –
34 | CN1CCN(Cc2c(C(N)=O)nc3n2CCOc2ccc(C#CC(C)(C)O)cc2-3)CC1 | 0.95 µM | –
35 | CN1CC[C@](O)(C#Cc2ccc3c(c2)-c2nc(C(N)=O)cn2C2CC3C2)C1=O | > 1.2 µM | –
36 | Cc1nc([C@](C)(O)C#Cc2ccc3c(c2)-c2nc(C(N)=O)c(C(O)c4ccnn4C)n2C2CC3C2)no1 (stereo partly drawn) | 0.0029 µM | –
37 | CC(C)(O)C#Cc1ccc2c(c1)-c1nc(C(N)=O)c(Cn3ncc4ccccc43)n1CCO2 | 0.14 µM | –
38 | Cn1nccc1Cc1c(C(N)=O)nc2n1C1CC(C1)c1ccc(C#C[C@@](C)(O)c3ncccn3)cc1-2 | 0.0013 µM | –
39 | CC(C)(O)C#Cc1ccc2c(c1)-c1nc(C(N)=O)c(Cn3ncc4cccnc43)n1CCO2 | 0.2 µM | –
40 | CC(C)(O)C#Cc1cc2c(cc1F)C1CC(C1)c1c-2nc(C(N)=O)n1Cc1ccccc1Cl | 0.0036 µM | –
41 | Cn1ccnc1C(C)(O)C#Cc1cc2c(cc1F)OCCn1cc(C(N)=O)nc1-2 (stereo not drawn) | 0.239 µM | –
42 | CN1CC[C@@](O)(C#Cc2ccc3c(c2)-c2nc(C(N)=O)c(C(=O)NC4CC4)n2C2CC3C2)C1=O | 0.016 µM | –
43 | Cc1cc([C@](C)(O)C#Cc2ccc3c(c2)-n2nc(C(N)=O)cc2CCO3)no1 | 0.0066 µM | –
44 | C[C@@](O)(C#Cc1ccc2c(c1)-n1nc(C(N)=O)cc1C(F)(F)CO2)c1cccnn1 | 1.6 µM | –

Row | SMILES | Ki [1] | Ki [µM]
45 | CC(C)(O)C#Cc1ccc2c(c1)-c1nc(C(N)=O)c(CNC3COC3)n1CCO2 | 0.00054 µM | –
46 | CC(C)NCc1c(C(N)=O)nc2n1CCOc1ccc(C#CC(C)(C)O)cc1-2 | 0.0042 µM | –
47 | CN1CC[C@@](O)(C#Cc2ccc3c(c2)-c2nc(C(N)=O)c(COc4ccccc4Cl)n2CCO3)C1=O | – | 0.004
48 | CC(C)(O)C#Cc1ccc2c(c1)-c1nc(C(N)=O)c(CN3CCC(C#N)C3)n1CCO2 (stereo not drawn) | 0.0019 µM | –
49 | CC(C)(O)C#Cc1ccc2c(c1)-c1nc(C(N)=O)c(CN3CC[C@@H](C#N)C3)n1CCO2 | 1.8 µM and 1.1 µM | –
50 | CC(C)(O)C#Cc1cc2c(cc1F)OCCn1c-2nc(C(N)=O)c1C(=O)NC1CCOC1 (stereo not drawn) | 0.037 µM | –
51 | COCC(C)(O)C#Cc1cc2c(cc1F)OCCn1cc(C(N)=O)nc1-2 (stereo not drawn) | 0.068 µM | –
52 | CNC(=O)C(C)(O)C#Cc1cc2c(cc1F)OCCn1cc(C(N)=O)nc1-2 (stereo not drawn) | 1.4 µM | –
53 | CNC(=O)c1c(C(N)=O)nc2n1CCOc1cc(F)c(C#CC(C)(O)CO)cc1-2 (racemic) | 0.002 µM | –
54 | CNC(=O)c1c(C(N)=O)nc2n1CCOc1ccc(C#CC(C)(O)CO)cc1-2 (racemic) | 0.003 µM | –
55 | Cn1nc(-c2ccncc2)nc1-c1c(C(N)=O)nc2n1CCOc1cc(F)c(C#CC(C)(C)O)cc1-2 (racemic) | 0.635 µM | –
56 | CC(O)(C#Cc1cc2c(cc1F)OCCn1cc(C(N)=O)nc1-2)c1ncc[nH]1 (racemic) | 0.083 µM | –
57 | NC(=O)c1cn2c(n1)-c1cc(C#CC3(O)CCc4cccnc43)ccc1OCC2 (racemic) | 0.0051 µM | –
58 | CC(C)(C#Cc1cc2c(cc1F)OCCn1cc(C(N)=O)nc1-2)CO (racemic) | > 5 µM | –
59 | CN(C)C1COc2cc(F)c(C#CC(C)(C)O)cc2-c2nc(C(N)=O)sc21 (racemic) | > 5 µM | –
60 | Cc1cc(C(C)(O)C#Cc2cc3c(cc2Cl)OCCn2cc(C(N)=O)nc2-3)no1 (racemic) | > 5 µM | –
61 | COCC(C)(O)C#Cc1cc2c(cc1F)C1CC(C1)n1c-2nc(C(N)=O)c1C1CC1 (racemic) | 0.014 µM | –
62 | Cc1cc([C@](C)(O)C#Cc2ccc3c(c2)-c2nc(C(N)=O)c(C(=O)N(C)C)n2C2CC3C2)no1 (racemic) | 0.03 µM | –
63 | CN(C)Cc1c(C(N)=O)nc2n1C1CC(C1)c1cc(F)c(C#CC(C)(C)O)cc1-2 (racemic) | 0.6 µM | –
64 | CN1CCN(Cc2c(C(N)=O)nc3n2C2CC(C2)c2cc(F)c(C#CC(C)(C)O)cc2-3)CC1 (racemic) | 0.12 µM | –
65 | CC(C)(O)C#Cc1cc2c(cc1F)C1CC(C1)c1[nH]c(C(N)=O)nc1-2 (racemic) | 0.00068 µM | –
66 | Cn1nccc1C(O)c1c(C(N)=O)nc2n1C1CC(C1)c1cc(F)c(C#CC(C)(C)O)cc1-2 (racemic) | 0.0072 µM | –
